Measurements taken from patent US20140187625A1, “RODENTICIDAL COMPOUND, COMPOSITION INCLUDING SAME AND USE FOR COMBATING RODENT PESTS” (priority 2011, published 2014).

molecular target: T1, activity with respect to vitamin K (vitamin K epoxide substrate), microsomal liver fractions from sensitive rats (Rattus norvegicus, UniProt Q6TEK4); assay: Inhibition of vitamin K epoxide reduction (activity with respect to vitamin K) in rat liver microsomes, IC50; format: biochemical; conditions: not given
T1 construct: with 0.5 to 1 mg of microsomal liver fractions from sensitive rats; from tissue; host or cells: rat liver microsomes (sensitive rats)
T1 sequence (Q6TEK4 1-161): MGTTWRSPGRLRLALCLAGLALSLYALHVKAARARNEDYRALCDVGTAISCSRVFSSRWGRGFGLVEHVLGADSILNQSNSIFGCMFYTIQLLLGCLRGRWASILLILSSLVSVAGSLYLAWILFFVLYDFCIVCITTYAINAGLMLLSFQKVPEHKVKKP
Experimental: The operating protocol is the following. Incubation is carried out in a 200 mM Hepes buffer (pH 7.4) containing 150 mM KCl in the presence of a reducing agent, dithiothreitol (1 mM): • with 0.5 to 1 mg of microsomal liver fractions from sensitive rats, and the reaction substrate, • with […] of vitamin K epoxide in a final volume of 1 ml.
The mixture is incubated for 30 minutes at 37° C. and the reaction is stopped by addition of 4 ml of a mixture of isopropanol/hexane (1:1).
The reaction mixture is then centrifuged for 10 minutes at 3,000 revolutions per minute.
The organic phase is collected and then evaporated to dryness under nitrogen.
The dry residue is immediately taken up in 200 μl of isopropanol.
The vitamin K is then analyzed. The products are separated by reverse chromatography on a C8 column using a mobile phase composed of methanol and acetic acid under isocratic conditions (1 ml/min) at 45° C. Detection of the product is carried out by MS/MS with an APCI source in positive mode.
The identification criteria for vitamin K are the retention time and the production of fragment 187 from the initial ion 451.
The IC50 values are evaluated by non-linear to linear regression from the equation of non-competitive inhibition:
v=(vmax/(l+(I/Ki)))*(S/(Km+S))
where v represents the initial rate, I the concentration of anticoagulant, Km the Michaelis-Menten constant, S the concentration of substrate (mM), Vmax the maximum rate of reaction and Ki the inhibition constant.

| SMILES | IC50 |
| --- | --- |
| CCCCCCCCCCc1c(O)c2ccccc2oc1=O [III] | 60 nM |
| CCCCCCCCc1c(O)c2ccccc2oc1=O [II] | 150 nM |
| CCCCCCCCCCCCc1c(O)c2ccccc2oc1=O [IV] | 50 nM |
| CCCCCCc1c(O)c2ccccc2oc1=O [VIII, reference compound] | > 200 nM |
| CCCCCCCCCCCCCCCCCCc1c(O)c2ccccc2oc1=O [VII] | 60 nM |
| CCCCCCCCCCCCCCCCc1c(O)c2ccccc2oc1=O [VI] | 40 nM |
| CCCCCCCCCCCCCCc1c(O)c2ccccc2oc1=O [V] | 40 nM |

same assay, conditions: microsomal liver fractions from sensitive rats, vitamin K epoxide substrate, 30 minutes at 37° C., pH 7.4, 1 mM dithiothreitol; read-out: IC50

| SMILES | IC50 |
| --- | --- |
| CCCCCCCCCCCCCCCCCCCCc1c(O)c2ccccc2oc1=O [IX, reference compound] | > 500 nM |
